For data set [1] the following is noted: 101.33 kPa, Liquid; for viscosity: Capillary tube (Ostwald / Ubbelohde) method; for mass density: Vibrating tube method.
The nature of data set [2]: xn = mol fraction of the nth substance listed. The conditions noted are these: 101 kPa, Liquid, x1 = 1; for viscosity: Capillary tube (Ostwald / Ubbelohde) method; for mass density: Vibrating tube method.

SMILES strings stand for the structures. Numbers after ± are expanded uncertainties.

One may read the viscosity as the internal friction of a fluid under shear. By mass density is commonly meant mass per unit of volume.

`CCCCn1cc[n+](C)c1.F[B-](F)(F)F` [1-butyl-3-methylimidazolium tetrafluoroborate]: the viscosity is given as 139.12 ± 8.7 mPa·s in data set [1] (293.15 K); 82.49 ± 5 mPa·s in data set [1] (303.15 K); 52.33 ± 3.1 mPa·s in data set [1] (313.15 K); 35.16 ± 2.1 mPa·s in data set [1] (323.15 K); 24.69 ± 1.5 mPa·s in data set [1] (333.15 K). Besides, the mass density is 1205.1 ± 1.2 kg/m3 in data set [1] (293.15 K); 1198 ± 1.2 kg/m3 in data set [1] (303.15 K); 1190.8 ± 1.2 kg/m3 in data set [1] (313.15 K); 1183.7 ± 1.2 kg/m3 in data set [1] (323.15 K); 1176.8 ± 1.2 kg/m3 in data set [1] (333.15 K).

For `CCCCn1cc[n+](C)c1.F[B-](F)(F)F` [1-butyl-3-methylimidazolium tetrafluoroborate] + NCCO, the viscosity in data set [2] (293.15 K) was 139.12 ± 8.7 mPa·s; in data set [2] (303.15 K), 82.49 ± 5 mPa·s; in data set [2] (313.15 K), 52.33 ± 3.1 mPa·s; in data set [2] (323.15 K), 35.16 ± 2.1 mPa·s; in data set [2] (333.15 K), 24.69 ± 1.5 mPa·s. The mass density in data set [2] (293.15 K) came to 1205.1 ± 1.2 kg/m3; in data set [2] (303.15 K) it was 1198 ± 1.2 kg/m3; in data set [2] (313.15 K), 1190.8 ± 1.2 kg/m3; in data set [2] (323.15 K) it was 1183.7 ± 1.2 kg/m3; in data set [2] (333.15 K), 1176.8 ± 1.2 kg/m3.

Take `NCCO` [2-aminoethan-1-ol]: the viscosity in data set [1] (293.15 K) amounted to 23.65 ± 1.4 mPa·s; in data set [1] (303.15 K) it was 14.75 ± 0.89 mPa·s; in data set [1] (313.15 K), 9.78 ± 0.59 mPa·s; in data set [1] (323.15 K), 6.81 ± 0.41 mPa·s; in data set [1] (333.15 K), 4.99 ± 0.3 mPa·s. Further, the mass density in data set [1] (293.15 K) is on record as 1015.5 ± 1 kg/m3; in data set [1] (303.15 K), 1007.6 ± 1 kg/m3; in data set [1] (313.15 K) it was 999.7 ± 1 kg/m3; in data set [1] (323.15 K), 991.7 ± 1 kg/m3; in data set [1] (333.15 K), 983.6 ± 1 kg/m3.

Values taken from the NIST ThermoML archive (doi:10.1016/j.jct.2016.07.041).
